Assay results: patent publication US9452225B2, “GLP-1 prodrugs” (Novo Nordisk A/S, priority 2012, dated 2016)

How the values were obtained:
human GLP-1 receptor = molecular target: T1, human GLP-1 receptor (Homo sapiens, UniProt P43220); experiment: In vitro potency, AlphaScreen cAMP assay on membranes; format: biochemical; conditions: cAMP formation, membranes of BHK467-12A cells
T1 construct: expressed in transfected cells; host or cells: BHK cells, clone FCW467-12A (parent line BHKTS13), membranes
Description: The purpose of this example is to test the activity, or potency, in vitro of, for example, the GLP-1 parent drugs of the prodrugs of the invention.
Purified plasma membranes from a stable transfected cell line, BHK467-12A (tk-ts13), expressing the human GLP-1 receptor were stimulated with the GLP-1 drug in question, and the potency of cAMP production was measured using the AlphaScreen™ cAMP Assay Kit from Perkin Elmer Life Sciences. The basic principle of The AlphaScreen Assay is a competition between endogenous cAMP and exogenously added biotin-cAMP. The capture of cAMP is achieved by using a specific antibody conjugated to acceptor beads.
A stable transfected cell line and a high expressing clone were selected for screening. The cells were grown at 5% CO2 in DMEM, 10% FCS, 1% Pen/Strep (Penicillin/Streptomycin) and preferably 0.5 (alternatively 1.0 mg/ml) of the selection marker G418.
Cells at approximate 80% confluence were washed twice with PBS and harvested with Versene (aqueous solution of the tetrasodium salt of ethylenediaminetetraacetic acid), centrifuged 5 min at 1000 rpm and the supernatant removed. The additional steps were all made on ice. The cell pellet was homogenised by the Ultrathurax for 20-30 s in 10 ml of Buffer 1 (20 mM Na-HEPES, 10 mM EDTA, pH=7.4), centrifuged 15 min at 20,000 rpm and the pellet resuspended in 10 ml of Buffer 2 (20 mM Na-HEPES, 0.1 mM EDTA, pH=7.4). The suspension was homogenised for 20-30 s and centrifuged 15 min at 20,000 rpm. Suspension in Buffer 2, homogenisation and centrifugation was repeated once and the membranes were resuspended in Buffer 2. The protein concentration was determined and the membranes stored at −80° C. until use.
The assay was performed in flat-bottom 96-well plates (Costar cat. no: 3693). The final volume per well was 50 μl.
AlphaScreen cAMP Assay Kit from Perkin Elmer Life Sciences (cat. No: 6760625M); containing Anti-cAMP Acceptor beads (10 U/μl), Streptavidin Donor beads (10 U/μl) and Biotinylated-cAMP (133 U/μl). […]

[1] = Pharmacokinetic study in minipigs after i.v. administration; format: in vivo, Göttingen minipigs; conditions: iv, minipig
Description: The purpose of this study is to determine the pharmacokinetic (PK) profile in vivo of a prodrug of the invention (Example 4) and the corresponding parent drug (Example B2.2) after i.v. administration to minipigs, e.g. the prolongation of their time in the body and thereby their time of action. This is done in a PK study, where the terminal half-life of the compound in question is determined. By terminal half-life is generally meant the period of time it takes to halve a certain plasma concentration, measured after the initial distribution phase.
Threefemale Göttingen minipigs, obtained from Ellegaard Göttingen Minipigs (Dalmose, Denmark) approximately 6-8 months of age and weighing approximately 16-21 kg (prodrug pig 16.8 kg, drug pigs 21.3 and 21.1 kg), were used in the studies. The minipigs were housed individually and fed restrictedly once daily with SDS minipig diet (Special Diets Services, Essex, UK). […]
The prodrug of Example 4 and the corresponding drug of Example B2.2 were dissolved in 50 mM sodium phosphate, 145 mM sodium chloride, 0.05% polysorbate 80, pH 7.4 to a suitable concentration (for example, 169.6 nmol/ml for the prodrug). […] Individual plasma concentration-time profiles were analyzed by a non-compartmental model in WinNonlin v. […] Also, the resulting terminal half-lives (harmonic mean/h) were determined, if possible. […]

[2] = Prodrug half-life in vitro, buffer method; format: physicochemical; conditions: 25 mM phosphate buffer pH 7.4, 37° C., 1.0 mg/mL; UPLC_A, or UPLC_B for compounds marked *; read-out: T½ in buffer (converted)
Description: (§1) The purpose of this example is to test the in vitro half-lives (T½) of the GLP-1 prodrugs of the invention, in comparison to conceptually different prodrugs. In what follows two in vitro methods are described, viz. a method conducted in buffer, and a method conducted in plasma.
Buffer: 25 mM Phosphate (Ionic strength: 154 mM, pH 7.4 at 37° C.)
NaH2PO4.2H2O (1.95 g, 12.5 mmol) and NaCl (2.61 g, 44.7 mmol) were dissolved in millipore water (approximately 450 mL) and adjusted to pH=7.44 at approximately 20° C. with concentrated NaOH and 1 M NaOH. Water was added to 500.00 mL.
The compound to be tested was dissolved in buffer to a concentration of 1.0 mg/mL and incubated at 37° C. Samples were taken at adequate intervals and the % parent drug compared to prodrug formed as function of time was evaluated by the UPLC method as referred to in Table 1 by comparing the areas under the curves for the two corresponding peaks. These UPLC methods are described in the general experimental section above (UPLC_A, and UPLC_B).
(§2) The half life of the prodrug (T½) was calculated from the slope of a linear fit to the curve of ln(% prodrug (Y)) as a function of time (t), as follows: Y=÷αt+k Math. 1 T½=ln(2)/α Math. 2 Plasma Method Buffer: 200 mM Phosphate, pH 7.4 at 37° C.
The resulting half-lives are set out in Table 1 below. For comparison, the T½ in buffer of native GLP-1(7-37) (His7 variant of SEQ ID NO: 1) was 13 minutes (0.2 hours).

[3] = Prodrug half-life in vitro, plasma method (minipig heparin plasma); format: in vitro ADME; conditions: minipig heparin plasma 800 μL + 200 μL 200 mM phosphate pH 7.4, 37° C.; UPLC_A, or UPLC_B for compounds marked *; read-out: T½ in plasma (converted)
Description: as §1, §2
NaH2PO4.2H2O (15.61 g, 100 mmol) was dissolved in milliQ water (approximately 450 mL) and adjusted to pH=7.44 at approximately 20° C. with concentrated NaOH (aq) and 1 M NaOH (aq). Water was added to 500.00 mL.
Serum: Minipig Serum, Heparin-Plasma
Fresh blood was tapped from minipig into 9 mL LH lithium heparin Vacuette tubes from Greiner bio-one (catalogue number 455084). After cooling on ice it was centrifuged (10 min, 4° C., 3000 rpm/1942G) and the supernatant isolated and kept at −18° C. before use.
100 nmol of the compound to be tested was dissolved in 200 μL buffer, added to 800 μL plasma (centrifuged), and incubated at 37° C. Samples (50 μL) were drawn at appropriate intervals into 150 μL absolute EtOH. After a short stirring the sample was centrifuged and the supernatant transferred to the UPLC vial (10 μL injection).
The % parent drug compared to prodrug formed as a function of time was evaluated by UPLC, and the half-life calculated, both in the same way as described above under the Buffer method.

T1 sequence (P43220 24-463): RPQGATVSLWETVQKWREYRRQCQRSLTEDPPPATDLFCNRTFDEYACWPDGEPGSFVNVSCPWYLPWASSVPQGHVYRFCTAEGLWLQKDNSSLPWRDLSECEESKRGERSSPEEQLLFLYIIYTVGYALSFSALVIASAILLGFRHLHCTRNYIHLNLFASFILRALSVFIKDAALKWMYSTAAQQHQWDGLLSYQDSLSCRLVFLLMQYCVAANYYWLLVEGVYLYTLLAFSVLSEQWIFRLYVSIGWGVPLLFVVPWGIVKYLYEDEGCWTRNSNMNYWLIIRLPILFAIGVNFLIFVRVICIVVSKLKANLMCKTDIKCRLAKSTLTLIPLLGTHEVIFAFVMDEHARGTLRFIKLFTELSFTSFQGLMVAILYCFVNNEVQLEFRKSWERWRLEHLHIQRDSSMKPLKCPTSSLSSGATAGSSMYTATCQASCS

CC[C@H](C)[C@H](NC(=O)[C@H](Cc1ccccc1)NC(=O)[C@H](CCC(=O)O)NC(=O)[C@H](CCCCNC(=O)COCCOCCNC(=O)COCCOCCNC(=O)CC[C@H](NC(=O)CCCCCCCCCOc1ccc(C(=O)O)cc1)C(=O)O)NC(=O)[C@H](C)NC(=O)[C@H](C)NC(=O)[C@H](CCC(N)=O)NC(=O)CNC(=O)[C@H](CCC(=O)O)NC(=O)[C@H](CC(C)C)NC(=O)[C@H](Cc1ccc(O)cc1)NC(=O)[C@H](CO)NC(=O)[C@H](CO)NC(=O)[C@@H](NC(=O)[C@H](CC(=O)O)NC(=O)[C@H](CO)NC(=O)[C@@H](NC(=O)[C@H](Cc1ccccc1)NC(=O)[C@@H](NC(=O)CNC(=O)[C@H](CCC(=O)O)NC(=O)[C@H](C)NC(=O)[C@@H](O)Cc1c[nH]cn1)[C@@H](C)O)[C@@H](C)O)C(C)C)C(=O)N[C@@H](C)C(=O)N[C@@H](Cc1c[nH]c2ccccc12)C(=O)N[C@@H](CC(C)C)C(=O)N[C@H](C(=O)N[C@@H](CCCNC(=N)N)C(=O)NCC(=O)N[C@@H](CCCNC(=N)N)C(=O)N[C@@H](CCCCNC(=O)COCCOCCNC(=O)COCCOCCNC(=O)CC[C@H](NC(=O)CCCCCCCCCOc1ccc(C(=O)O)cc1)C(=O)O)C(=O)O)C(C)C [Example B2.2]
EC50 (human GLP-1 receptor): 460 pM | half-life ([1]; female, Göttingen, plasma, parent drug given i.v. 3 nmol/kg, read-out: Terminal half-life (harmonic mean/h) (converted)): 37 h

CC[C@H](C)[C@H](NC)C(=O)N[C@H](C(=O)O[C@@H](Cc1c[nH]cn1)C(=O)N[C@@H](C)C(=O)N[C@@H](CCC(=O)O)C(=O)NCC(=O)N[C@H](C(=O)N[C@@H](Cc1ccccc1)C(=O)N[C@H](C(=O)N[C@@H](CO)C(=O)N[C@@H](CC(=O)O)C(=O)N[C@H](C(=O)N[C@@H](CO)C(=O)N[C@@H](CO)C(=O)N[C@@H](Cc1ccc(O)cc1)C(=O)N[C@@H](CC(C)C)C(=O)N[C@@H](CCC(=O)O)C(=O)NCC(=O)N[C@@H](CCC(N)=O)C(=O)N[C@@H](C)C(=O)N[C@@H](C)C(=O)N[C@@H](CCCCNC(=O)COCCOCCNC(=O)COCCOCCNC(=O)CC[C@H](NC(=O)CCCCCCCCCOc1ccc(C(=O)O)cc1)C(=O)O)C(=O)N[C@@H](CCC(=O)O)C(=O)N[C@@H](Cc1ccccc1)C(=O)N[C@H](C(=O)N[C@@H](C)C(=O)N[C@@H](Cc1c[nH]c2ccccc12)C(=O)N[C@@H](CC(C)C)C(=O)N[C@H](C(=O)N[C@@H](CCCNC(=N)N)C(=O)NCC(=O)N[C@@H](CCCNC(=N)N)C(=O)N[C@@H](CCCCNC(=O)COCCOCCNC(=O)COCCOCCNC(=O)CC[C@H](NC(=O)CCCCCCCCCOc1ccc(C(=O)O)cc1)C(=O)O)C(=O)O)C(C)C)[C@@H](C)CC)C(C)C)[C@@H](C)O)[C@@H](C)O)C(C)C [Example 4]
half-life [2]: 58.9 h | half-life ([1]; in vivo, prodrug given i.v. 8 nmol/kg, half-life of the released parent drug, estimated from the bell-shaped curve, read-out: apparent terminal half-life of corresponding drug (estimated) (converted)): 68 h | half-life [3]: 27.9 h
